Experimental data taken from patent US12084521B2, “TLR9 inhibitors to suppress inflammatory response to pathogens” (University Of Maryland, Baltimore, priority 2018, dated 2024).
“Also recorded” adds a separate entry of the source. No end group written: not given here. Cy3 = Cy3 fluorescent dye label

Columns and labels:
TLR9 TIR = molecular target: T1, TLR9 TIR (Homo sapiens, UniProt Q9NR96); assay: FLIM/FRET binding of Cy3-labeled peptides to Cer-fused TIR in HeLa cells; settings: HeLa cells, Cy3-peptide 2.5-40 μM, 1 hour, dose-dependent
T1 construct: expressed in transfected cells; host or cells: HeLa
T1 sequence (Q9NR96 868-1013 limits assumed): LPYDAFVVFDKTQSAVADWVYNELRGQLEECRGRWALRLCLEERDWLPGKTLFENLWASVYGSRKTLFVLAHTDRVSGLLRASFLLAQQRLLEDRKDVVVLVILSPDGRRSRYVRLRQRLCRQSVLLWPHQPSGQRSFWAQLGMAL
Description: (§1) Three million HeLa cells were transfected with 10 μg of MyD88-Cer, TIRAP-Cer, TRAM-Cer, TLR2-Cer, TLR4 TIR-Cer, or TLR9 TIR-Cer expression vectors using a Lipofectamine™ 3000 kit from Invitrogen™ per manufacturer recommendations. Twenty four hours later, the transfected cells were trypsinized and reseeded into a 50-well gasket (Grace Bio-Labs™) mounted on a microscope slide at the density 8000 cells/well. The next day, cells were treated with Cy3-9R34-ΔN or Cy3-9R11 for 1 hour and fixed on the slides with a 4% paraformaldehyde solution.
(§2) Fluorescence lifetime images were acquired using the Alba V FLIM™ system (ISS™ Inc.). The excitation was from the laser diode 443 nm coupled with scanning module (ISS™) through multiband dichroic filter 443/532/635 nm (Semrock™) to Olympus™ IX71S microscope with objective 20×0.45 NA (UPlan™ Olympus™). Emission was observed through bandpass filter […] (Chroma Technology™) and detected by a photomultiplier H7422-40 (Hamamatsu™). Measurements were performed using frequency domain (FD) and time domain (TD) modalities of the FLIM system. FD FLIM data were acquired using ISS™ A320 FastFLIM™ electronics with n harmonics of 20 MHz laser repetition frequency (n=1, 2, 3, 4, 5, 6). FastFLIM™ was calibrated using fluorescein in buffer pH 8.0 as a standard with a single lifetime of 4.0 ns. TD FLIM images were acquired using time-correlated single photon counting TCSPC™ Model SPC-830 (Becker & Hick™).
(§3) Images (256×256 pixels) were acquired with resolution varied in the range ˜0.4-0.7 μm/pixel, using scan speed 1 ms/pixel. To avoid pixel intensity saturation in bright cells and to improve the signal from dim cells, two to five overlapping scans were used for acquisition of FLIM images. Image sizes varied from 100×100 to 180×180 μm to accommodate multiple cells. FLIM data were analyzed with VistaVision™ Suite software (Vista™ v.212 from ISST). Fluorescence lifetime was determined using single- and bi-exponential intensity decay models. Average lifetime images were generated based on pixel-by-pixel analysis using the combined signal of two neighboring pixels in all directions (bin 2=25 pixels). The binning was used to improve the signal for analysis. The average lifetimes were calculated from fitted parameters, decay times τi and amplitudes αi, τa=Σαiτi. The bi-exponential fitting procedure was performed with one lifetime component fixed at 3.1 nsec, which was found common for most images. To calculate the effective FRET efficiency (E), average lifetimes of the donor only images (τD) and donor-acceptor images (τDA) were used, E=1−τDA/τD.
(§4) To identify potential binding partners of inhibitory peptides a FRET approach coupled with Fluorescence Lifetime Imaging Microscopy (FLIM) was used. HeLa cells were transiently transfected with an expression vector that encodes a TIR domain fused with Cerulean fluorescent protein (Cer). Cells were treated with various concentrations of a Cy3-labeled inhibitory peptide 48 hours after transfection. Cy3 is a suitable FRET acceptor for Cer fluorescence. A direct molecular interaction of a Cy3-labeled peptide with Cer-fused TIR domain should quench Cer fluorescence, leading to a decreased fluorescence lifetime.
(§5) TLR9, MyD88, and TIRAP were selected as potential primary binding partners for Cy3-9R34-ΔN and Cy3-9R11. Cer-fused TLR2 and TLR4 TIR domains, and Cer not fused to a TIR, were used as controls. […] Therefore, the TIRAP-Cer with Cy3-2R9 was used as a positive binding control. Binding of Cy3-labeled CPDPs to Cerulean- (Cer-) labeled TIR domains was tested as follows. Fluorescence Lifetime IMages (FLIM) were made of HeLa cells expressing Cer not fused with a TIR domain (upper row) or fused with TLR9 TIR or TIRAP TIR (middle and bottom rows) and treated with a Cy3-labeled decoy peptide for 1 hour.
(§6) A progressive shift of average fluorescence lifetime towards lower values observed with increasing peptide concentrations indicates the binding between donor and acceptor moieties. […]

MyD88 TIR = molecular target: T2, MyD88 TIR (Homo sapiens, UniProt Q99836); assay: as above
T2 construct: expressed in transfected cells; host or cells: HeLa
Description: as §1, §2, §3, §4, §5, §6

TIRAP TIR = molecular target: T3, TIRAP TIR (Homo sapiens, UniProt P58753); assay: as above; settings: HeLa cells, Cy3-peptide 2.5-40 μM, 1 hour
T3 construct: fused with TLR9 TIR or TIRAP TIR; expressed in transfected cells; host or cells: HeLa
Description: as §1, §2, §3, §4, §5, §6

[1] = system: Cer not fused to a TIR domain; assay: FLIM/FRET control construct in HeLa cells; assay type: binding; settings: peptide 40 μM
Description: as §1, §2, §3, §5

myDDosome = settings: BMDM pretreated with CPDP; MyD88 IP, IRAK4 blot
Description: Four million BMDMs per well were plated in 6-well plates and treated with CPDP for 30 minutes prior to stimulation with ODN 1668 for 90 minutes. Cells were lysed in 600 p L of buffer containing 20 mM HEPES (pH 7.4), 150 mM NaCl, 10 mM NaF, 2 mM Na3VO4, 1 mM EDTA, 1 mM EGTA, 0.5% Triton X-100, 0.1 mM DTT, and protease inhibitor cocktail (Roche™). Cell extracts were incubated overnight with 1 μg of anti-mouse MyD88 antibody (AF3109) (R&D Systems™, followed by a 4-hour incubation with 20 μL protein G Sepharose beads (ThermoFisherm Scientific). The beads were then washed 3 times with 500 μL of lysis buffer and boiled in 60 μL of Laemmli sample buffer (Bio-Rad™). Cell extracts were electrophoresed on 10% acrylamide gel by SDS-PAGE and transferred to PVDF membrane (Bio-Rad™). Rabbit anti-MyD88 IgG was purchased from Cell Signaling™. Mouse anti-IRAK4 IgG was obtained from Abcam™. Alkaline phosphatase-conjugated secondary antibodies against mouse and rabbit IgG were purchased from Cell Signaling™. The stabilized substrate for alkaline phosphatase was from Promega™.
TLR stimulation causes formation of myDDosome, a signaling complex composed through interactions of IRAK and MyD88 death domains. To test if peptides inhibit myDDosome formation, MyD88 was immunoprecipitated from lysates of ODN-stimulated BMDM and the precipitates analyzed for IRAK4 presence. BMDM were lysed and lysates immunoprecipitated with anti-MyD88 Ab and immune complexes assessed with anti-IRAK4 Ab 3 hours after cell treatment with ODN 1668.

TLR9 signaling [2] = assay: ODN 1668-induced cytokine mRNA expression in BMDM (quantitative real time PCR); assay type: cell-based, mouse; settings: BMDM; for inhibition of TLR9 signaling (ODN 1668-induced cytokine mRNA, overall): peptide 10, 20 or 40 μM, ODN 1668 1 μM; for TNFα mRNA expression / IL-12-p40 mRNA expression / IL-10 mRNA expression: peptide 10, 20 or 40 μM 30 min before ODN 1668 (1 μM), normalized to HPRT; for TNFα mRNA expression: 1 hour after stimulation; for IL-12-p40 mRNA expression / IL-10 mRNA expression: 1 hour
Description: The cDNA obtained was amplified with gene-specific primers for mouse HPRT, TNFα, IL-10, IL-12-p40, or IL-6 and Fast SYBR Green™ master mix (Applied Biosystemsm) as previously described.
Mouse BMDMs were incubated in the presence of a 10, 20 or 40 μM decoy peptide for 30 minutes prior to stimulation with ODN 1668 (1 μM). […] Data represent the means±SEM of at least three independent experiments. The statistical significance of changes in cytokine mRNA was determined by a one-way ANOVA test; *p<0.001. Peptides 9R3 and 9R34 have overlapping sequences (see Table 1).
To investigate inhibition of TLR9 signaling by 9R34 analogues, the following work was performed. Mouse BMDMs were incubated in the presence of a 10, 20 or 40 μM decoy peptide for 30 minutes prior to stimulation with ODN 1668 (1 μM). Cytokine mRNA expression was measured 1 hour after ODN 1668 challenge and normalized to the expression of HPRT. See also Table 1. Data represent means±SEM of at least three independent experiments.

TLR9 signaling [3] = assay: Plasma cytokines after i.p. ODN 1668 in mice; assay type: in vivo, C57BL/6J mice; settings: peptide 200 nmol/mouse i.p.; ODN 1668 7.86 nmol/mouse
Description: Systemic cytokine levels were measured in plasma samples obtained 1, 3, and 5 hours after intraperitoneal (i.p.) administration of 7.86 nmol (50 μg) of ODN 1668 or 67 nmol of Pam3C per mouse, using ELISA kits from Biolegend™ Inc. CPDP were dissolved in PBS and administered i.p. at the dose of 200 nmol per mouse 1 hour before administration of a TLR agonist. For survival experiments, mice were sensitized to TLR9 agonists by i.p. injection of 20 mg of D-Gal 30 minutes before administration of peptides or PBS. ODN 1668 was used at the doses of 3.93 or 7.86 nmol/mouse (25 or 50 μg/mouse) 1.5 hours after D-Gal. Animal survival was monitored for 50 hours. All agents were administered i.p. in 500 μL volume of PBS. Animals had free access to food and water during the observation period. All animal experiments were conducted in accordance with the national guidelines for the care and use of laboratory animals under a protocol that was approved by the UMB IACUC.
To test the in vivo efficacy and specificity of 9R34-ΔN, C57BL/6J mice were mock-treated or treated i.p. with a single dose of inhibitory or control peptide (200 nmol/mouse) and challenged with TLR9 agonist ODN 1668 (7.86 nmol/mouse) or TLR2/1 agonist Pam3C (67 nmol/mouse) 1 hour later. Plasma concentrations of TNFα and IL-12-p40 were measured 1, 3, and 5 hours after the challenge. Both TLR agonists increased concentrations of TNFα and IL-12-p40 in 1 hour samples from below the limit of detection to about 1.2 and about 6 ng/mL in the case of ODN 1668, and to 0.12 ng/mL and 1 ng/mL after treatment with Pam3C.
Plasma TNFα and IL-12-p40 levels following intraperitioneal administration of ODN 1668 to C57Bl/6J mice in peptide-pretreated and control mice are shown in FIG. 14A and FIG. 14B. Data shown in these figures represent the means±SEM obtained in at least three independent experiments. The statistical significance of changes in cytokine concentrations was determined by a two-way ANOVA test; *p<0.001.

TLR9 signaling [4] = assay: ODN 1668-induced cytokine secretion in BMDM supernatants (ELISA); assay type: cell-based, mouse; settings: peptide 40 μM; 5 hour supernatants; ODN 1668 1 μM
Description: Mouse TNFα and IL-12-p40 concentrations were measured in supernatants using ELISA kits from Biolegend™, Inc.
BMDMs were incubated in the presence of a decoy peptide for 30 minutes prior to stimulation with ODN 1668 (1 μM). The statistical significance of changes in cytokine levels was determined by the one-way ANOVA test; *p<0.01.

T3 sequence (P58753 84-213 limits assumed): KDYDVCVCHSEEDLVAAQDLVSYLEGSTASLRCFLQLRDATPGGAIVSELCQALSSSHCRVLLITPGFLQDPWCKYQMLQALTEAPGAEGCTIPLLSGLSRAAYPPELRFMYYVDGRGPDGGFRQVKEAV
T2 sequence (Q99836 159-293 limits assumed): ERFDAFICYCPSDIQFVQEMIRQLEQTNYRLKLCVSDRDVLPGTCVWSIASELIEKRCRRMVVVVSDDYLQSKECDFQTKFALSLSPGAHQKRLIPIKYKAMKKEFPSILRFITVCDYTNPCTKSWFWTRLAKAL

In the case of “Cy3-9R11: Cy3-labeled 9R11 peptide, Cy3 label placed at the peptide N-terminus (Cy3-RQIKIWFQNRRMKWKKRSFWAQLGMALTRD)”, the “FRET efficiency, TLR9 TIR-Cer” value (TLR9 TIR) is reported as 3-27%, the “quenching of MyD88-Cer fluorescence lifetime” value (MyD88 TIR) is reported as “detectable, but less effective” and the “quenching of TIRAP-Cer fluorescence” value (TIRAP TIR) is reported as “induced FRET from TIRAP-Cer, but only when used at higher concentrations of 10 or 40 μM”. The “fluorescence lifetime of Cer not fused to a TIR domain (unspecific quenching)” value [1] was “Unspecific Cer quenching”.

With DKTQSAVADWVYNE (Synthetic peptide 9R2) the “ODN 1668-induced myDDosome formation” value (myDDosome) was “not”, the “inhibition of TLR9 signaling (ODN 1668-induced cytokine mRNA, overall)” value (from here on “inhibition of TLR9 signaling”) (TLR9 signaling [2]) was “did not inhibit TLR9” and the “ODN 1668-induced plasma cytokine levels (TNFα, IL-12-p40)” value (TLR9 signaling [3]) was “did not significantly reduce”.

“GRWALRACAEERD (Synthetic peptide 9R34-delta-L2) [Peptide 9R34-ΔL2]” was tested, and the “inhibition of TLR9 signaling” value (TLR9 signaling [2]) was “inhibited TLR9 signaling less potently”.

“GRWALRACLEERD (Synthetic peptide 9R34-delta-L1) [Peptide 9R34-ΔL1]” was tested, and the “inhibition of TLR9 signaling” value (TLR9 signaling [2]) was “inhibited TLR9 signaling less potently”.

With “GRWALRLCLE (Synthetic peptide 9R34-delta-C) [Peptide 9R34-ΔC]” the “inhibition of TLR9 signaling” value (TLR9 signaling [2]) was “as potent as the parent peptide”.

In the case of “GRWALRLSLEERD (Synthetic peptide 9R34-C/S)”, the “inhibition of TLR9 signaling” value (TLR9 signaling [2]) is reported as “as potent as the parent peptide”.

For HTDRVSGLLRASFL (Synthetic peptide 9R6), the “TNFα mRNA expression” value (TLR9 signaling [2]) was “partial activity”, the “IL-12-p40 mRNA expression” value (TLR9 signaling [2]) was “partial activity” and the “inhibition of TLR9 signaling” value (TLR9 signaling [2]) was “some inhibitory activity; also recorded: weakly inhibited”.

In the case of LEERDWLPGKTLFE (Synthetic peptide 9R4), the “inhibition of TLR9 signaling” value (TLR9 signaling [2]) is reported as “did not inhibit”.

For “RGQLEECRGRWALR (also: antennapedia vector attached) [Peptide 9R3, tested as CPDP with antennapedia vector]”, the “TNFα mRNA expression” value (TLR9 signaling [2]) was “significantly suppressed”, the “IL-10 mRNA expression” value (TLR9 signaling [2]) was “significantly suppressed” and the “IL-12-p40 mRNA expression” value (TLR9 signaling [2]) was “significantly suppressed”. For the same substance, the “inhibition of TLR9 signaling” value (TLR9 signaling [2]) was “inhibit TLR9 signaling”.

For RYVRLRQRLCRQS (Synthetic peptide 9R9), the “TNFα mRNA expression” value (TLR9 signaling [2]) was “significantly suppressed”, the “IL-10 mRNA expression” value (TLR9 signaling [2]) was “significantly suppressed” and the “IL-12-p40 mRNA expression” value (TLR9 signaling [2]) was “significantly suppressed”. For the same substance, the “inhibition of TLR9 signaling” value (TLR9 signaling [2]) was “inhibit TLR9 signaling; also recorded: inhibited signaling weaker than 9R34 or 9R11”, the “production/secretion of TNFα” value (TLR9 signaling [4]) was “did not inhibit significantly” and the “secretion of IL-12-p40” value (TLR9 signaling [4]) was “reduced secretion”.

With SPDGRRSRYVR (Synthetic peptide 9R8) the “inhibition of TLR9 signaling” value (TLR9 signaling [2]) was “some inhibitory activity”.
